From article PMC6463685, “WS-5 Extract of Curcuma longa, Chaenomeles sinensis, and Zingiber officinale Contains Anti-AChE Compounds and Improves β-Amyloid-Induced Memory Impairment in Mice” (Evidence-based Complementary and Alternative Medicine : eCAM, 2019) come the findings set out here.

This assay deals with T1, acetylcholinesterase (AChE).
T1 construct: AChE used with commercial BioVision colorimetric AChE assay kit
The assay can be described thus: colorimetric AChE kit (choline oxidase/probe), […] nm. The following applies: 37°C, 20 min, AChE substrate 5 mM. Type of assay: biochemical.

In general, IC50 refers to the midpoint of a concentration-inhibition curve. A high value points to weaker potency in that assay. As to `O=C(O)c1ccc(O)c(O)c1` [Protocatechuic acid], the IC50 (also printed as 10.42 μg/ml) amounted to 67.6 µM. With `CCCCC/C=C/C(=O)CCc1ccc(O)c(OC)c1` [6-Shogaol], half-maximal inhibition (also printed as 17.92 μg/ml) (IC50) required 64.8 µM.
